Measurements published in patent EP3046573B1, “AMYLIN ANALOGUES” (Zealand Pharma A/S, priority 2013, dated 2015).
pEC50: −log10 of the molar value. Numbered stars: 1 amine (or outer) side, 2 acyl side, 3 side chain; on linkers, the order of the positions; unused ones are H or OH. Bridge positions count the residues as written; N and C are the ends. Square brackets hold non-standard residues; d marks the D form. Peptide text beside a SMILES is read from it. * marks the point of attachment. C20 diacid = O=C(O)CCCCCCCCCCCCCCCCCCC(=O)*; γGlu = O=C(O)[C@H](CCC(=O)[*:2])N[*:1]; Hyp = O=C(O)[C@@H]1C[C@@H](O)CN1; NMeI = CC[C@H](C)[C@H](NC)C(=O)O; Sar = CNCC(=O)O

Assays:
[1] = biological target: T1, human calcitonin receptor (hCTR2) (Homo sapiens, UniProt P30988); test: hCTR2 assay: induction of cAMP (AlphaScreen cAMP Assay kit) in COS7 cells expressing hCTR2; type: cell-based; settings: cAMP induction in COS7 cells expressing hCTR2; average of a minimum of 3 determinations; read-out: hCTR2 EC50
T1 construct: expressed in transfected cells
T1 sequence (P30988 25-474): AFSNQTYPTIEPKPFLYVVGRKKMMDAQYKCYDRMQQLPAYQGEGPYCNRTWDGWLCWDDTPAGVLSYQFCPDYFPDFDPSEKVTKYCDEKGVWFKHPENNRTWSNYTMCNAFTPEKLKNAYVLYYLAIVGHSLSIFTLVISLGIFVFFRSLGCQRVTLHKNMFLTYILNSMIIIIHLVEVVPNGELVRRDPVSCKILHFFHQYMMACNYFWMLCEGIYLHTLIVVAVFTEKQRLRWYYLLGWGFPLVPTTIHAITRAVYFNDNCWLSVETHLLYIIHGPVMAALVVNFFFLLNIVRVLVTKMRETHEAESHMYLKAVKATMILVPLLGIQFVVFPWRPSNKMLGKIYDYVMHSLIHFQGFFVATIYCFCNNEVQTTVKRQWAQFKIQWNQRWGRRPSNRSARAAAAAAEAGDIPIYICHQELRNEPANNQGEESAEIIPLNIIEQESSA
Method in brief: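 Functional agonism is measured as cAMP accumulation in a COS7 line stably transfected with hCTR2, lacking endogenous RAMPs. Peptides act for 15 min at 37° C with IBMX present, and curves are fitted with a 4-parameter logistic model.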

[2] = biological target: T2, human amylin receptor 3 (hAMYR3) consisting of hCTR2 co-expressed with human Receptor Activity Modifying Protein 3 (hRAMP3) (Homo sapiens, UniProt O60896+P30988); test: hAMYR3 assay: induction of cAMP (AlphaScreen cAMP Assay kit) in COS7 cells expressing hAMYR3; type: cell-based; settings: cAMP induction in COS7 cells expressing hAMYR3; average of a minimum of 3 determinations; read-out: hAMY R3 EC50
T2 construct: expressed in transfected cells
T2 sequence (P30988 25-474): T1 sequence (P30988 25-474)
T2 sequence (O60896 24-148 partner): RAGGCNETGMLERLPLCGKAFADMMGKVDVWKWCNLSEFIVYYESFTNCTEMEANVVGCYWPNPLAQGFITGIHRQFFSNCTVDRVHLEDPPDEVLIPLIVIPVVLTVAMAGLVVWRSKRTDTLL
Method in brief: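 Stable COS7 clone co-expressing hCTR2 and hRAMP3, stimulated 15 min at 37° C with increasing peptide in Tyrode buffer pH 7.4 with 100 µM IBMX and 0.1% casein. cAMP measured by AlphaScreen after lysis; EC50 and % efficacy versus pramlintide from 4PL fit.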

[3] = Solubility assessment (turbidity absorbance at 325 nm); type: physicochemical; settings: stock 2 mg/ml diluted 1:1, ambient temperature (typically 25°C), n=1; for Solubility, Acetate buffer pH 4: 100 mM acetate buffer pH 4.0; for Solubility, Acetate buffer pH 5: 100 mM acetate buffer pH 5.0; for Solubility, Histidine buffer pH 6: 100 mM histidine buffer pH 6.0; for Solubility, Histidine buffer pH 7: 100 mM histidine buffer pH 7.0; for Solubility, Phosphate buffer pH 6: 100 mM phosphate buffer pH 6.0; for Solubility, Phosphate buffer pH 7: 100 mM phosphate buffer pH 7.0; for Solubility, Phosphate buffer pH 7.5: 100 mM phosphate buffer pH7.5
Method in brief: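 Stock 2 mg/ml peptide, H2O/HCl pH 2.5; 1:1 into 100 mM buffers: acetate pH 4.0/5.0, His pH 6.0/7.0, phosphate pH 6.0/7.0/7.5. A280 + A325, ~25°C, n=1. Soluble ≥ 1 mg/ml if A325 ≤ 0.02.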

| pEC50 [1] | pEC50 [2] | Solubility, Acetate buffer pH 4 [3] | Solubility, Acetate buffer pH 5 [3] | Solubility, Histidine buffer pH 6 [3] | Solubility, Histidine buffer pH 7 [3] | Solubility, Phosphate buffer pH 6 [3] | Solubility, Phosphate buffer pH 7 [3] | Solubility, Phosphate buffer pH 7.5 [3] | SMILES |
| --- | --- | --- | --- | --- | --- | --- | --- | --- | --- |
| 9.38 | 9.13 | SS (SS indicates solubility ≥ 1mg/ml) | SS (SS indicates solubility ≥ 1mg/ml) | SS (SS indicates solubility ≥ 1mg/ml) | SS (SS indicates solubility ≥ 1mg/ml) | SS (SS indicates solubility ≥ 1mg/ml) | II (II indicates solubility ≤ 1 mg/ml) | SS (SS indicates solubility ≥ 1mg/ml) | CC[C@H](C)[C@@H](C(=O)N[C@@H](CC(C)C)C(=O)N[C@@H](CO)C(=O)N[C@@H](CO)C(=O)N[C@H](C(=O)N[C@@H](CCC(=O)O)C(=O)N[C@H](C(=O)NCC(=O)N[C@@H](CO)C(=O)N[C@@H](CCC(=O)O)C(=O)N[C@H](C(=O)N1CCC[C@H]1C(N)=O)[C@@H](C)O)C(C)C)[C@@H](C)O)N(C)C(=O)[C@H](C)NC(=O)CN(C)C(=O)[C@H](Cc1ccccc1)NC(=O)[C@H](CO)NC(=O)[C@H](CO)NC(=O)[C@H](CO)NC(=O)[C@H](CO)NC(=O)[C@H](CCCNC(=N)N)NC(=O)[C@H](Cc1c[nH]cn1)NC(=O)[C@H](CC(C)C)NC(=O)[C@H](Cc1ccccc1)NC(=O)[C@H](CCC(=O)O)NC(=O)[C@H](C)NC(=O)[C@H](CC(C)C)NC(=O)[C@H](CCCNC(=N)N)NC(=O)[C@H](CCC(=O)O)NC(=O)[C@@H](NC(=O)[C@H](C)NC(=O)[C@@H]1CSSC[C@H](NC(=O)[C@H](CCCCN)NC(=O)[C@H](CCCCN)NC(=O)CC[C@H](NC(=O)CCCCCCCCCCCCCCCCCCC(=O)O)C(=O)O)C(=O)N[C@@H](CCC(=O)O)C(=O)N[C@@H]([C@@H](C)O)C(=O)N[C@@H](C)C(=O)N[C@@H]([C@@H](C)O)C(=O)N1)[C@@H](C)O [Compound 163, [19CD]-isoGlu-KKC()ETATC()ATERLAEFLHRSSSSF-Gly(Me)-A-Ile(Me)-LSSTEVGSETP-NH2] ({C20 diacid-γGlu}-KKCETATCATERLAEFLHRSSSSF[Sar]A[NMeI]LSSTEVGSETP-NH2; disulfide 3-8) |
| 9.96 | 9.57 | SS (SS indicates solubility ≥ 1mg/ml) | SS (SS indicates solubility ≥ 1mg/ml) | SS (SS indicates solubility ≥ 1mg/ml) | SS (SS indicates solubility ≥ 1mg/ml) | SS (SS indicates solubility ≥ 1mg/ml) | II (II indicates solubility ≤ 1 mg/ml) | SS (SS indicates solubility ≥ 1mg/ml) | CC[C@H](C)[C@@H](C(=O)N[C@@H](CC(C)C)C(=O)N[C@@H](CO)C(=O)N[C@@H](CO)C(=O)N[C@H](C(=O)N[C@@H](CCC(=O)O)C(=O)N[C@H](C(=O)NCC(=O)N[C@@H](CO)C(=O)N[C@@H](CCC(=O)O)C(=O)N[C@H](C(=O)N1C[C@H](O)C[C@H]1C(N)=O)[C@@H](C)O)C(C)C)[C@@H](C)O)N(C)C(=O)CN(C)C(=O)[C@H](Cc1ccccc1)NC(=O)[C@H](CO)NC(=O)[C@H](CO)NC(=O)[C@H](CCCNC(=N)N)NC(=O)[C@H](Cc1c[nH]cn1)NC(=O)[C@H](CC(C)C)NC(=O)[C@H](Cc1ccccc1)NC(=O)[C@H](CCC(=O)O)NC(=O)[C@H](C)NC(=O)[C@H](CC(C)C)NC(=O)[C@H](CCCNC(=N)N)NC(=O)[C@H](CCC(=O)O)NC(=O)[C@@H](NC(=O)[C@H](C)NC(=O)[C@@H]1CSSC[C@H](NC(=O)[C@H](Cc2c[nH]c3ccccc23)NC(=O)CC[C@H](NC(=O)CCCCCCCCCCCCCCCCCCC(=O)O)C(=O)O)C(=O)NCC(=O)N[C@@H]([C@@H](C)O)C(=O)N[C@@H](C)C(=O)N[C@@H]([C@@H](C)O)C(=O)N1)[C@@H](C)O [Compound 165, [19CD]-isoGlu-WC()GTATC()ATERLAEFLHRSSF-Gly(Me)-Ile(Me)-LSSTEVGSET-Hyp-NH2] ({C20 diacid-γGlu}-WCGTATCATERLAEFLHRSSF[Sar][NMeI]LSSTEVGSET[Hyp]-NH2; disulfide 2-7) |
| 10.11 | 9.96 | SS (SS indicates solubility ≥ 1mg/ml) | SS (SS indicates solubility ≥ 1mg/ml) | SS (SS indicates solubility ≥ 1mg/ml) | SS (SS indicates solubility ≥ 1mg/ml) | SS (SS indicates solubility ≥ 1mg/ml) | SS (SS indicates solubility ≥ 1mg/ml) | SS (SS indicates solubility ≥ 1mg/ml) | CC[C@H](C)[C@@H](C(=O)N[C@@H](CC(C)C)C(=O)N[C@@H](CO)C(=O)N[C@@H](CO)C(=O)N[C@H](C(=O)N[C@@H](CCC(=O)O)C(=O)N[C@H](C(=O)NCC(=O)N[C@@H](CO)C(=O)N[C@@H](CCC(=O)O)C(=O)N[C@H](C(=O)N1C[C@H](O)C[C@H]1C(N)=O)[C@@H](C)O)C(C)C)[C@@H](C)O)N(C)C(=O)CN(C)C(=O)[C@H](Cc1ccccc1)NC(=O)[C@H](CO)NC(=O)[C@H](CO)NC(=O)[C@H](CCCNC(=N)N)NC(=O)[C@H](Cc1c[nH]cn1)NC(=O)[C@H](CC(C)C)NC(=O)[C@H](Cc1ccccc1)NC(=O)[C@H](CCC(=O)O)NC(=O)[C@H](C)NC(=O)[C@H](CC(C)C)NC(=O)[C@H](CCCNC(=N)N)NC(=O)[C@H](CCC(=O)O)NC(=O)[C@@H](NC(=O)[C@H](C)NC(=O)[C@@H]1CSSC[C@H](NC(=O)[C@H](CCCNC(=N)N)NC(=O)CC[C@H](NC(=O)CCCCCCCCCCCCCCCCCCC(=O)O)C(=O)O)C(=O)NCC(=O)N[C@@H]([C@@H](C)O)C(=O)N[C@@H](C)C(=O)N[C@@H]([C@@H](C)O)C(=O)N1)[C@@H](C)O [Compound 167, [19CD]-isoGlu-RC()GTATC()ATERLAEFLHRSSF-Gly(Me)-Ile(Me)-LSSTEVGSET-Hyp-NH2] ({C20 diacid-γGlu}-RCGTATCATERLAEFLHRSSF[Sar][NMeI]LSSTEVGSET[Hyp]-NH2; disulfide 2-7) |
